Source: article PMC9821843, “Powerful Potential of Polyfluoroalkyl-Containing 4-Arylhydrazinylidenepyrazol-3-ones for Pharmaceuticals” (Molecules, 2022)
Marks after values point to notes of the source that are not given here.

Key:
[1] = Ferric reducing antioxidant power (FRAP) assay; details: 20 μM; n.a. = inactive
Excerpt: The FRAP assay measures the ability of anti-oxidants to reduce the ferric 2,4,6-tripyridyl-s-triazine complex [Fe(TPTZ)2]^3+ to the intensely blue ferrous colored complex [Fe(TPTZ)2]^2+ with an absorption maximum at λ = 593 nm. The reducing ability of a compound is an indicator of its potential anti-oxidant activity. 2,4,6-Tris(pyridin-2-yl)-1,3,5-triazine (TPTZ), FeCl3·6H2O, Trolox and DMSO were obtained from Sigma-Aldrich Chemical Co (St. Louis, MO, USA).
The ferric reducing ability of the compounds was determined by the method in microplate adapted version described in [116]. The FRAP reagent was prepared by mixing acetate buffer (0.3 M, pH 3.6), TPTZ (10 mM in 40 mM HCl) and FeCl3·6H2O (20 mM in distilled water) in a ratio of 10:1:1 immediately before use. Compounds were dissolved in DMSO and tested in the concentration 20 μM. The solvent content in the reaction mixture was 4% (v/v). The test compounds (10 μL of 0.5 mM solution) were added to the FRAP reagent solution (240 μL) and mixed thoroughly. The reaction was carried out at 37 °C in the dark; the incubation time was 1 h. The absorbance at 600 nm was monitored spectrophotometrically by a FLUOStar OPTIMA microplate reader (BMG Labtech, Ortenberg, Germany) at 37 °C. Trolox was used as a reference compound. Values were obtained from four replicates of each sample in three independent experiments.
The ferric reducing ability of compounds was expressed as TE units (antioxidant activity in Trolox equivalent), the values calculated as the ratio of the concentrations of Trolox and the test compound resulting in the same effect. The calculations were carried out using Origin 6.1 for Windows. Results were presented as mean ± SEM, calculated using GraphPad Prism version 6.05 for Windows, GraphPad Software.

Sprague-Dawley rats = experiment: Carrageenan-induced paw edema model (anti-inflammatory activity); type: in vivo; details: ip
Procedure: Anti-inflammatory activity was studied in Sprague-Dawley rats (3 male and 3 female animals per group) by using the common carrageenan-induced paw edema model. The investigated compounds in 1% starch mucilage were intraperitoneally administered at the corresponding dose to a treated group of rodents 30 min before the injection of 0.1 mL of freshly prepared 1% carrageenan (λ-carrageenan, type IV; Sigma Aldrich, an affiliate of Merck KGaA, Darmstadt, Germany) solution in the right hind paw plantar surface. The negative control group was treated with 1% starch mucilage solution only. Diclofenac sodium (10 mg/kg in 1% starch mucilage solution) was used as a reference drug. Paw volumes were measured oncometrically with water plethysmometer (TSE Volume Meter, Bad Homburg, Germany) before carrageenan administration (“zero time”) and at 1st, 3rd, 5th and 24th h after its injection. An anti-inflammatory activity of the sample at a certain time point was calculated in two steps. First, the percentage of an edema increment (i.e., relative volume change for the inflamed paw vs. “zero time” value) both in the negative control group (Pc) and in the treated group (Ptr) were calculated for this time point for each animal. The difference between treated and control group was considered significant at p < 0.05. Then, for such cases, swelling inhibition was calculated according to the formula: 100% (Pc − Ptr)/Pc and considered as a measure of anti-inflammatory activity of the sample.

Vero cells = experiment: Live cell visualization (fluorescent staining, confocal microscopy); type: cell-based, African green monkey; details: 1 × 10^–4 M, laser excitation
Excerpt: Tartrazine, having 4-(4-sulfonatophenylazo)-5-pyrazolone moiety, is widely used as a synthetic lemon-yellow azo dye for food coloring. Many reports about the pyrazolone-based dyes for different purposes have been published to date. However, there are no reports describing 4-AHPs’ use for the biovisualization of living cells. In this work, we studied the potential of compounds 5f, 6a, 9a for the fluorescent visualization of the Vero cell structure (African green monkey kidney epithelium). Cells stained with the compound at a concentration of 1 × 10^–4 M in DMEM were examined using an LSM-710 laser scanning confocal microscope.
The suitability of substances for fluorescent imaging of cellular structures was studied on Vero cell culture (African green monkey kidney epithelium) and CHO (Chinese hamster ovary). The culture is supported in DMEM (Gibco, Uoltem, USA) with addition of 10% fetal bovine serum (Gibco, Uoltem, USA) and a mixture of gentamicin and streptomycin (Biolot, Moscow, Russia).
The cells were cultivated into specialized Petri dishes with a glass bottom for staining. Staining was carried out with substances at a concentration of 1 × 10^–4 M. For that, the solution of substances was preliminarily diluted with DMSO (Biolot, Moscow, Russia) to a concentration of 1 × 10^–3 M and then with DMEM to the required concentration. Incubation with the substance was carried out for half an hour in an incubator, in the dark at a temperature of 37 °C. […]
The stained cells with the substance were examined using an LSM-710 laser scanning confocal microscope (Carl Zeiss, Oberkochen, Germany). […] Fluorescence was excited by lasers with different wavelengths and registered in lambda mode. This mode gets to collect a full spectrum image by analyzing the intensity of fluorescence in different ranges. […] Taking images in this mode also makes it possible to obtain the fluorescence spectrum of the test substance in the cell. However, a confocal microscope is not a spectrofluorometer and the resulting spectra can have very poor quality, especially at low fluorescence intensity.

SMILES	FRAP (TE, antioxidant activity in Trolox equivalents) [1]	acute phototoxicity during cell visualization (Vero cells)	other results
O=C1NN=C(C(F)(F)F)/C1=N/Nc1ccccc1 [5a, (Z)-4-(2-Phenylhydrazinylidene)-5-(trifluoromethyl)-2,4-dihydro-3H-pyrazol-3-one]	0.09 ± 0.01	–	–
Cc1ccc(N/N=C2\C(=O)NN=C2C(F)(F)F)cc1 [5b, (4Z)-4-[2-(4-Methylphenyl)hydrazinylidene]-5-(trifluoromethyl)-2,4-dihydro-3H-pyrazol-3-one]	0.05 ± 0.02	–	–
Cc1ccc(N/N=C2\C(=O)N(c3ccccc3)N=C2C(F)(F)F)cc1 [5f, (4Z)-4-[2-(4-Methylphenyl)hydrazinylidene]-2-phenyl-5-(trifluoromethyl)-2,4-dihydro-3H-pyrazol-3-one]	–	No acute phototoxicity	Inhibition of Paw Edema Development Comparing to Control, after 5 h (Sprague-Dawley rats; dose 15 mg/kg, n.a. = inactive): 30.9 * %
CS(=O)(=O)c1ccc(N/N=C2\C(=O)N(c3ccccc3)N=C2C(F)(F)F)cc1 [5m, (4Z)-4-(2-[4-(Methylsulfonyl)phenyl]hydrazinylidene)-2-phenyl-5-(trifluoromethyl)-2,4-dihydro-3H-pyrazol-3-one]	–	–	Inhibition of Paw Edema Development Comparing to Control, after 1 h (Sprague-Dawley rats; dose 25 mg/kg): 49.0 ** %; Inhibition of Paw Edema Development Comparing to Control, after 3 h (Sprague-Dawley rats; dose 25 mg/kg): 44.3 * %; Inhibition of Paw Edema Development Comparing to Control, after 5 h (Sprague-Dawley rats; dose 25 mg/kg): 35.3 * %
Cc1ccc(N/N=C2\C(=O)NN=C2C(F)(F)C(F)(F)F)cc1 [6a, (4Z)-4-[2-(4-Methylphenyl)hydrazinylidene]-5-(pentafluoroethyl)-2,4-dihydro-3H-pyrazol-3-one]	0.15 ± 0.02	No acute phototoxicity	–
CC1=NNC(=O)/C1=N\Nc1ccc(C)cc1 [9a, (4Z)-5-Methyl-4-[2-(4-methylphenyl)hydrazinylidene]-2,4-dihydro-3H-pyrazol-3-one]	0.51 ± 0.01	No acute phototoxicity	–
CC1=NN(c2ccccc2)C(=O)/C1=N\Nc1ccc(C)cc1 [9b, (4Z)-5-Methyl-4-[2-(4-methylphenyl)hydrazinylidene]-2-phenyl-2,4-dihydro-3H-pyrazol-3-one]	0.11 ± 0.01	–	–
